From patent US20230340012A1, “NATURAL AND SYNTHETIC COMPOUNDS FOR TREATING CANCER AND OTHER DISEASES” (PACIFIC ARROW LIMITED, priority 2009, published 2023)

Test system: cancer cells
Assay: MTT cytotoxic assay of esterification products (Cytotoxicity activity)
Type: cell-based, human
Text: The peaks, fractions and compounds are selected according to the activities of times studies and the changes of peaks. Selecting the HPLC fractions for isolation is according to the cytotoxic activity of the reaction product obtained at a specific time. The compounds having strong to weak activities are selected and isolated. Selecting the HPLC fractions for isolation may be according to the cytotoxic activity of times studies and the change of peaks. The anti-cancer activities are the MTT studies of bone (U2OS), lung (H460), bladder (HTB-9), ovary (ES2), colon (HCT116), pancreas (Capan), ovary(OVCAR3), prostate (DU145), skin (SK-Mel-5), mouth (KB), kidney (A498), breast (MCF-7), liver (HepG2), brain (T98G), leukemia (K562), cervix (HeLa).
Esterification of compound (A), (B), (C), (D1), (D2), (E), (F), (G), (H1), (H2), E4A, E4A2Y, (P1), P(2), terpene, isoprene, triterpenes, hydroxylated triterpenes, with acyl halide, wherein the halide comprise chloride, bromide, fluoride and iodide, wherein the acyl halide comprise acyl chloride, wherein acyl chloride comprise tigloyl chloride, angeloyl chloride, acetyl chloride, crotonoyl chloride, 3,3-Dimethylacryloyl chloride, senecioyl chloride, cinnamoyl chloride, pentenoyl chloride, hexanoyl chloride, benzoyl chloride, ethylbutyryl chloride, propionyl chloride, 2-propenoyl chloride, isobutyryl chloride, butyryl chloride, (2E)-2-pentenoyl chloride, 4-Pentenoyl chloride, 5-hexenoyl chloride, heptanoyl chloride, octanoyl chloride, nonanoyl chloride, decanoyl chloride, Lauroyl chloride, myristoyl chloride, oleoyl chloride. The compounds vary in composition when the time or temperature of the reaction is changed. The peaks, fractions and compounds are selected according to the activities of times studies and the changes of peaks. The compounds having strong to weak activities are selected and isolated. The anti-cancer activities (Cytotoxic Assay) are the MTT studies of bone (U2OS), lung (H460), bladder(HTB-9), ovary (ES2), colon (HCT116), pancreas (Capan), ovary(OVCAR3), prostate (DU145), skin (SK-Mel-5), mouth (KB), kidney (A498), breast (MCF-7), liver (HepG2), brain (T98G), leukemia (K562), cervix (HeLa). The active esterification products are purified with HPLC. The reaction product of mixtures and individual compounds are tested with MTT Cytotoxic Assay. Details of method are in Experiment 3 of the present application. A second esterification of compound can be selected from the above experiment results to produce new active compounds. A partial esterification compound is selected from the above experiments to perform a second or repeated with a third esterification with different acyl chloride in order to produce new active compounds with the experiments in the present application.
Method: 40 mg of triterpene core (fraction IV) was dissolved in 1 ml pyridine in a 50 ml tube. Reaction is started by adding 0.2 ml of acyl chloride (Tigloyl chloride, angeloyl chloride, Acetyl chloride, Crotonoyl chloride, 3,3-Dimethylacryloyl chloride(senecioyl chloride), Cinnamoyl chloride, Pentenoyl chloride, Hexanoyl chloride, benzoyl chloride or Ethylbutyryl chloride). The mixture is stirred for 5 sec, 1 min, 2 min, 5 min, 10 min, 30 min, 1 hr, 2 hr, 18 hr, 2 days or 3 days at 0° C., 25° C. or 75° C. temperature. At the end of reaction, 5 ml of 2N HCl or 1 M NaHCO3 is added to the reaction mixture. The solution is then extracted 3 times with 10 ml of ethyl acetate which is then evaporated under vacuum and at 45C and lyophilization. The reaction product is dissolved in 80% acetonitrile - 0.005% Trifluoroacetic acid or DMSO; and was separated with HPLC. Selecting the HPLC fractions for isolation is according to the cytotoxic activity of the reaction product obtained at a specific reaction time. The active esterification products are purified with HPLC. The reaction product of mixtures and individual compounds are tested with MTT cytotoxic assay. Structures are determined with NMR. […]

[1] = E4A esterified with 2-propenoyl chloride (Ppe = Propenoyl), compounds isolated with HPLC
[2] = E4A esterified with Propionyl chloride (Ppi = Propionyl), compounds isolated with HPLC
[3] = E4A esterified with benzoyl chloride (Ben = benzoyl), compounds isolated with HPLC
[4] = esterification products of core compound E4A with (2E)-2-pentenoyl chloride (2pe = 2-pentenoyl)
[5] = esterification products of core compound E4A with Butyryl chloride (But = Butyryl)
[6] = esterification products of core compound E4A with Decanoyl chloride (Dec = Decanoyl)
[7] = esterification products of core compound E4A with Isobutyryl chloride (Iso = Isobutyryl)
[8] = esterification products of core compound E4A with Myristoyl chloride (Myr = Myristoyl)
[9] = esterification products of core compound E4A with Octanoyl chloride (Oct = Octanoyl)
[10] = esterification products isolated with HPLC, graded strong / moderate / weak
[11] = esterification products of E4A—Tig—N with senecioyl chloride
[12] = E4A esterified with Cinnamoyl chloride (Cin = Cinnamoyl), compounds isolated with HPLC
[13] = E4A esterified with Crotonoyl chloride (Cro = Crotonoyl), compounds isolated with HPLC
[14] = MTT cytotoxic assay, isolated esterification products of E4A
[15] = E4A esterified with Acetyl chloride (Acy = Acetyl), compounds isolated with HPLC

CC1(C)CC2C3=CCC4C5(C)CCC(OC(=O)c6ccccc6)C(C)(CO)C5CCC4(C)C3(C)CC(O)C2(CO)C(OC(=O)c2ccccc2)C1OC(=O)c1ccccc1 (stereo not shown) [Compound K23]
Cytotoxicity activity [1]: moderate
Cytotoxicity activity [2]: moderate
Cytotoxicity activity [3]: moderate
Cytotoxicity activity [4]: moderate
Cytotoxicity activity [5]: moderate
Cytotoxicity activity [6]: moderate
Cytotoxicity activity [7]: moderate
Cytotoxicity activity [8]: moderate
Cytotoxicity activity [9]: moderate

CC=C(C)C(=O)OCC1(C)C(O)CCC2(C)C1CCC1(C)C2CC=C2C3CC(C)(C)C(OC(=O)C(CC)CC)C(O)C3(CO)C(O)CC21C (stereo not shown) [Tig—Eth—5]
Cytotoxicity activity [10]: moderate

CC=C(C)C(=O)OCC1(C)C(O)CCC2(C)C1CCC1(C)C2CC=C2C3CC(C)(C)C(O)C(OC(=O)C=C(C)C)C3(COC(=O)C=C(C)C)C(O)CC21C (stereo not shown) [Tig—Sen—3]
Cytotoxicity activity [11]: moderate

CC1(C)CC2C3=CCC4C5(C)CCC(OC(=O)C=Cc6ccccc6)C(C)(CO)C5CCC4(C)C3(C)CC(O)C2(COC(=O)C=Cc2ccccc2)C(O)C1O (stereo not shown) [Compound J27]
Cytotoxicity activity [12]: moderate

CC=C(C)C(=O)OCC1(C)C(O)CCC2(C)C1CCC1(C)C2CC=C2C3CC(C)(C)C(O)C(O)C3(COC(C)=O)C(O)CC21C (stereo not shown) [Tig—Acy—1]
Cytotoxicity activity [10]: strong

CC=CC(=O)OCC1(C)C(O)CCC2(C)C1CCC1(C)C2CC=C2C3CC(C)(C)C(OC(=O)C=CC)C(OC(=O)C=CC)C3(COC(=O)C=CC)C(OC(=O)C=CC)CC21C (stereo not shown) [Compound I16]
Cytotoxicity activity [13]: weak

CC=C(C)C(=O)OCC1(C)C(O)CCC2(C)C1CCC1(C)C2CC=C2C3CC(C)(C)C(O)C(O)C3(CO)C(OC(=O)C(C)=CC)CC21C (stereo not shown) [Compound A32]
Cytotoxicity activity [14]: moderate

CCC(CC)C(=O)OC1C(OC(=O)C(CC)CC)C2(CO)C(O)CC3(C)C(=CCC4C5(C)CCC(OC(=O)C(CC)CC)C(C)(CO)C5CCC43C)C2CC1(C)C (stereo not shown) [Compound E23]
Cytotoxicity activity [14]: moderate

CCC(CC)C(=O)OCC1(C)C(O)CCC2(C)C1CCC1(C)C2CC=C2C3CC(C)(C)C(OC(=O)C(CC)CC)C(OC(=O)C(CC)CC)C3(CO)C(O)CC21C (stereo not shown) [Compound E21]
Cytotoxicity activity [14]: moderate

CC(C)=CC(=O)OCC12C(O)CC3(C)C(=CCC4C5(C)CCC(O)C(C)(CO)C5CCC43C)C1CC(C)(C)C(O)C2OC(=O)C=C(C)C (stereo not shown) [Compound B26]
Cytotoxicity activity [14]: moderate

CC(=O)OCC1(C)C(OC(C)=O)CCC2(C)C1CCC1(C)C2CC=C2C3CC(C)(C)C(OC(C)=O)C(OC(C)=O)C3(COC(C)=O)C(O)CC21C (stereo not shown) [Compound H15]
Cytotoxicity activity [15]: weak

CCCCCC(=O)OCC1(C)C(O)CCC2(C)C1CCC1(C)C2CC=C2C3CC(C)(C)C(O)C(O)C3(CO)C(OC(=O)CCCCC)CC21C (stereo not shown) [Compound D32]
Cytotoxicity activity [14]: moderate

CC(=O)OCC12C(O)CC3(C)C(=CCC4C5(C)CCC(O)C(C)(CO)C5CCC43C)C1CC(C)(C)C(O)C2OC(C)=O (stereo not shown) [Compound H26]
Cytotoxicity activity [15]: moderate

CC(C)=CC(=O)OCC12C(O)CC3(C)C(=CCC4C5(C)CCC(O)C(C)(CO)C5CCC43C)C1CC(C)(C)C(O)C2O (stereo not shown) [Compound B2]
Cytotoxicity activity [14]: moderate

CC=C(C)C(=O)OCC1(C)C(O)CCC2(C)C1CCC1(C)C2CC=C2C3CC(C)(C)C(OC(=O)C(C)=CC)C(OC(=O)C(C)=CC)C3(CO)C(O)CC21C (stereo not shown) [Compound A21]
Cytotoxicity activity [14]: moderate

CC=C(C)C(=O)OCC1(C)C(OC(C)=O)CCC2(C)C1CCC1(C)C2CC=C2C3CC(C)(C)C(OC(C)=O)C(O)C3(COC(=O)C(C)=CC)C(O)CC21C (stereo not shown) [Tig—R—Acy—5]
Cytotoxicity activity [10]: weak

C=CCCC(=O)OCC12C(O)CC3(C)C(=CCC4C5(C)CCC(OC(=O)CCC=C)C(C)(COC(=O)C(C)=CC)C5CCC43C)C1CC(C)(C)C(O)C2O (stereo not shown) [Tig—Pen—4]
Cytotoxicity activity [10]: moderate

CC=C(C)C(=O)OCC1(C)C(OC(=O)C(C)=CC)CCC2(C)C1CCC1(C)C2CC=C2C3CC(C)(C)C(O)C(O)C3(COC(=O)C(C)=CC)C(O)CC21C (stereo not shown) [Compound A6]
Cytotoxicity activity [14]: moderate

CCC(CC)C(=O)OCC1(C)C(O)CCC2(C)C1CCC1(C)C2CC=C2C3CC(C)(C)C(OC(=O)C(CC)CC)C(OC(=O)C(CC)CC)C3(COC(=O)C(CC)CC)C(OC(=O)C(CC)CC)CC21C (stereo not shown) [Compound E16]
Cytotoxicity activity [14]: weak

CC=CC(=O)OC1C(OC(=O)C=CC)C2(CO)C(OC(=O)C=CC)CC3(C)C(=CCC4C5(C)CCC(O)C(C)(CO)C5CCC43C)C2CC1(C)C (stereo not shown) [Compound I22]
Cytotoxicity activity [13]: moderate

CC=C(C)C(=O)OCC1(C)C(O)CCC2(C)C1CCC1(C)C2CC=C2C3CC(C)(C)C(OC(=O)C=Cc4ccccc4)C(OC(=O)C=Cc4ccccc4)C3(COC(=O)C(C)=CC)C(O)CC21C (stereo not shown) [Tig—R—Cin—1]
Cytotoxicity activity [10]: weak

CC1(C)CC2C3=CCC4C5(C)CCC(O)C(C)(COC(=O)C=Cc6ccccc6)C5CCC4(C)C3(C)CC(O)C2(COC(=O)C=Cc2ccccc2)C(OC(=O)C=Cc2ccccc2)C1O (stereo not shown) [Compound J5]
Cytotoxicity activity [12]: moderate

CC1(C)CC2C3=CCC4C5(C)CCC(O)C(C)(COC(=O)c6ccccc6)C5CCC4(C)C3(C)CC(OC(=O)c3ccccc3)C2(CO)C(O)C1O (stereo not shown) [Compound K32]
Cytotoxicity activity [1]: moderate
Cytotoxicity activity [2]: moderate
Cytotoxicity activity [3]: moderate
Cytotoxicity activity [4]: moderate
Cytotoxicity activity [5]: moderate
Cytotoxicity activity [6]: moderate
Cytotoxicity activity [7]: moderate
Cytotoxicity activity [8]: moderate
Cytotoxicity activity [9]: moderate

C=CCCC(=O)OCC1(C)C(OC(=O)CCC=C)CCC2(C)C1CCC1(C)C2CC=C2C3CC(C)(C)C(OC(=O)CCC=C)C(O)C3(COC(=O)CCC=C)C(O)CC21C (stereo not shown) [Compound C11]
Cytotoxicity activity [14]: weak

CC1(C)CC2C3=CCC4C5(C)CCC(O)C(C)(CO)C5CCC4(C)C3(C)CC(O)C2(CO)C(OC(=O)c2ccccc2)C1OC(=O)c1ccccc1 (stereo not shown) [Compound K24]
Cytotoxicity activity [1]: moderate
Cytotoxicity activity [2]: moderate
Cytotoxicity activity [3]: moderate
Cytotoxicity activity [4]: moderate
Cytotoxicity activity [5]: moderate
Cytotoxicity activity [6]: moderate
Cytotoxicity activity [7]: moderate
Cytotoxicity activity [8]: moderate
Cytotoxicity activity [9]: moderate

CC=C(C)C(=O)OCC1(C)C(O)CCC2(C)C1CCC1(C)C2CC=C2C3CC(C)(C)C(OC(=O)C=C(C)C)C(O)C3(COC(=O)C=C(C)C)C(O)CC21C (stereo not shown) [Tig—Sen—2]
Cytotoxicity activity [11]: moderate

CC(C)=CC(=O)OCC1(C)C(OC(=O)C=C(C)C)CCC2(C)C1CCC1(C)C2CC=C2C3CC(C)(C)C(O)C(OC(=O)C=C(C)C)C3(COC(=O)C=C(C)C)C(O)CC21C (stereo not shown) [Compound B9]
Cytotoxicity activity [14]: weak

CC1(C)CC2C3=CCC4C5(C)CCC(OC(=O)C=Cc6ccccc6)C(C)(COC(=O)C=Cc6ccccc6)C5CCC4(C)C3(C)CC(OC(=O)C=Cc3ccccc3)C2(COC(=O)C=Cc2ccccc2)C(OC(=O)C=Cc2ccccc2)C1OC(=O)C=Cc1ccccc1 (stereo not shown) [Compound J19]
Cytotoxicity activity [12]: none
